Test results as given in patent US20180303853A1, “COMPOSITIONS AND METHODS FOR TREATING BACTERIAL INFECTIONS USING CEFTAROLINE” (priority 2017, published 2018).

How the values were obtained:
[1] = system: MSSA (methicillin-susceptible); assay: Integrated Phase 3 CABP studies, clinical cure by infecting pathogen; assay type: in vivo, Staphylococcus aureus; conditions: ME patients
Description: (§1) In both treatment groups of CABP Study 1, two doses of oral clarithromycin (500 mg q12 h), were administered as adjunctive therapy starting on Study Day 1. No adjunctive macrolide therapy was used in CABP Study 2. Patients with new or progressive pulmonary infiltrate(s) on chest radiography and clinical signs and symptoms consistent with CABP with the need for hospitalization and IV therapy were enrolled in the studies. Treatment duration was 5 to 7 days. A switch to oral therapy was not allowed. The Modified Intent-to-Treat Efficacy (MITTE) population, included all patients who received any amount of study drug according to their randomized, treatment group and were in PORT (Pneumonia Outcomes Research Team) Risk Class III or IV.
(§2) The primary efficacy endpoint was the clinical response at the Test of Cure (TOC) visit in the co-primary Ce and MITTE populations (Table 4).

[2] = system: complicated skin and skin structure infections (cSSSI); assay: Two Phase 3 studies in cSSSI, clinical cure at TOC; assay type: in vivo, human; conditions: for Treatment Difference (2-sided 95% CI): vs Vancomycin/Aztreonam
Description: (§3) A total of 1396 adults with clinically documented complicated skin and skin structure infections (cSSSI) were enrolled in two randomized, multi-center, multinational, double-blind, studies comparing 600 mg ceftaroline fosamil administered intravenously over 1 hour every 12 hours to vancomycin plus aztreonam [1 g vancomycin administered intravenously over 1 hour followed by 1 g aztreonam administered intravenously over 1 hour every 12 hours]. Patients with cSSSI (deep/extensive cellulitis, a major abscess, a wound infection [surgical or traumatic], infected insect bites, burns or ulcers, lower extremity infection in patients with diabetes mellitus or peripheral vascular disease), were enrolled in the studies. Treatment duration was […] days. A switch to oral therapy was not allowed. The Modified Intent-to-Treat (MITT) population included all patients who received any amount of study drug according to their randomized treatment group.
(§4) The primary efficacy endpoint was clinical response at the Test of Cure (TOC) visit in the co-primary CE and MITT populations (Table 2). […] In a subgroup analysis (CE population), the comparative clinical cure rates between the ceftaroline group and the vancomycin plus aztreonam group were not affected by age, gender, race, ethnicity, or weight.

[3] = system: MDRSP (multidrug-resistant); assay type: in vivo, Streptococcus pneumoniae; conditions: CABP, ME patients
Description: as §1, §2

[4] = system: Streptococcus anginosus group; assay: Phase 3 cSSSI studies, clinical cure by infecting pathogen; assay type: in vivo, S. anginosus, S. intermedius, and S. constellatus; conditions: ME patients
Description: as §3, §4

[5] = system: complicated skin and skin structure infections (cSSSI); assay: Two Phase 3 studies in cSSSI, clinical cure at TOC; assay type: in vivo, human; conditions: Integrated Studies, CE population, 5 to 14 days of therapy
[6] = system: Community-Acquired Bacterial Pneumonia (CABP); assay: Two Phase 3 studies in CABP, clinical cure at TOC (single and integrated/combined); assay type: in vivo, human; conditions: for Treatment Difference (2-sided 95% CI): vs Ceftriaxone
Description: as §1, §2

[7] = Pharmacokinetics of ceftaroline after IV infusion of ceftaroline fosamil in adults with normal renal function
[8] = Excretion after single IV dose of radiolabeled ceftaroline fosamil in healthy male adults; assay type: in vivo, human; conditions: single 600 mg IV dose of radiolabeled ceftaroline fosamil
Description: Following administration of a single 600 mg IV dose of radiolabeled ceftaroline fosamil to healthy male adults, approximately 87% of radioactivity was recovered in urine and 6% in feces. The majority of the radioactivity (˜90%) was recovered within 48 hours. Of the radioactivity recovered in urine, approximately 64% was excreted as ceftaroline and approximately 2% as ceftaroline-M-1.

[9] = Aqueous solubility of ceftaroline fosamil
[10] = system: Streptococcus dysgalactiae; assay: Phase 3 cSSSI studies, clinical cure by infecting pathogen; assay type: in vivo; conditions: ME patients
Description: as §3, §4

Escherichia coli [11] = assay: as above; assay type: in vivo; conditions: ME patients
Description: as §3, §4

Klebsiella oxytoca = assay: as above; assay type: in vivo; conditions: ME patients
Description: as §3, §4

Morganella morganii = assay: as above; assay type: in vivo; conditions: ME patients
Description: as §3, §4

Streptococcus pyogenes = assay: as above; assay type: in vivo; conditions: ME patients
Description: as §3, §4

Klebsiella pneumoniae [12] = assay: as above; assay type: in vivo; conditions: ME patients
Description: as §3, §4

Staphylococcus aureus [13] = assay: as above; assay type: in vivo; conditions: ME patients
Description: as §3, §4

Streptococcus agalactiae = assay: as above; assay type: in vivo; conditions: ME patients
Description: as §3, §4

[14] = Four pooled controlled comparative Phase 3 clinical studies (two cSSSI, two CABP), safety; conditions: pooled Phase 3 studies
Description: Ceftaroline fosamil was evaluated in four controlled comparative Phase 3 clinical studies (two in cSSSI and two in CABP).

[15] = system: CYP1A1, CYP1A2, CYP2A6, CYP2B6, CYP2C8, CYP2C9, CYP2C19, CYP2D6, CYP2E1 and CYP3A4; assay: Cytochrome P450 inhibition in human liver microsomes; assay type: in vitro ADME; conditions: human liver microsomes
[16] = system: CYP1A2, CYP2B6, CYP2C8, CYP2C9, CYP2CI9, or CYP3A4/5; assay: CYP induction in human hepatocytes; assay type: in vitro ADME; conditions: human hepatocytes
[17] = system: MSSA (methicillin-susceptible); assay: Phase 3 cSSSI studies, clinical cure by infecting pathogen; assay type: in vivo, Staphylococcus aureus; conditions: ME patients
Description: as §3, §4

[18] = system: MRSA (methicillin-resistant); assay type: in vivo, Staphylococcus aureus; conditions: cSSSI, ME patients
Description: as §3, §4

Haemophilus influenzae = assay: Integrated Phase 3 CABP studies, clinical cure by infecting pathogen; assay type: in vivo; conditions: ME patients
Description: as §1, §2

Escherichia coli [19] = assay: as above; assay type: in vivo; conditions: ME patients
Description: as §1, §2

Streptococcus pneumoniae = assay: as above; assay type: in vivo; conditions: ME patients
Description: as §1, §2

Klebsiella pneumoniae [20] = assay: as above; assay type: in vivo; conditions: ME patients
Description: as §1, §2

Staphylococcus aureus [21] = assay: as above; assay type: in vivo; conditions: ME patients
Description: as §1, §2

With CCO/N=C(\C(=O)N[C@@H]1C(=O)N2C(C(=O)[O-])=C(Sc3nc(-c4cc[n+](C)cc4)cs3)CS[C@H]12)c1nsc(NP(=O)(O)O)n1 [Ceftaroline fosamil, (6R,7R)-7-{(2Z)-2-(ethoxyimino)-2-[5-(phosphonoamino)-1,2,4-thiadiazol-3-yl]acetamido}-3-{[4-(1-methylpyridin-1-ium-4-yl)-1,3-thiazol-2-yl]sulfanyl}-8-oxo-5-thia-1-azabicyclo[4.2.0]oct-2-ene-2-carboxylate] the “Clinical cure rate by infecting pathogen” value [1] was 18/25 (72.0%), the “Clinical cure rate at TOC” value ([2]; Integrated Studies, MITT population) was 595/693 (85.9) % and the “Clinical cure rate at TOC” value ([2]; cSSSI Study 1, CE population) was 288/316 (91.1) %. For the same compound, the “Clinical cure rate at TOC” value ([2]; cSSSI Study 1, MITT population) was 304/351 (86.6) %, the “Clinical cure rate at TOC” value ([2]; cSSSI Study 2, CE population) was 271/294 (92.2) % and the “Clinical cure rate at TOC” value ([2]; cSSSI Study 2, MITT population) was 291/342 (85.1) %. For the same compound, the “Treatment Difference (2-sided 95% CI)” value ([2]; Integrated Studies, CE) was −1.1 (−4.2, 2.0), the “Treatment Difference (2-sided 95% CI)” value ([2]; Integrated Studies, MITT) was 0.3 (−3.4, 4.0) and the “Treatment Difference (2-sided 95% CI)” value ([2]; cSSSI Study 1, CE) was −2.2 (−6.6, 2.1). The “Treatment Difference (2-sided 95% CI)” value ([2]; cSSSI Study 1, MITT) was 1.0 (−4.2, 6.2), the “Clinical cure rate by infecting pathogen” value [3] was 4/4 (100%) and the “Clinical cure rate by infecting pathogen” value [4] was 12/13 (92.3%). For the same compound, the “Clinical cure rate at TOC” value [5] was 559/610 (91.6) %, the “Clinical cure rate at TOC” value ([6]; CABP Study 1, CE population) was 194/224 (86.6%) and the “Clinical cure rate at TOC” value ([6]; CABP Study 1, MITTE population) was 244/291 (83.8%). The “Clinical cure rate at TOC” value ([6]; CABP Study 2, CE population) was 193/235 (82.1%), the “Clinical cure rate at TOC” value ([6]; CABP Study 2, MITTE population) was 235/289 (81.3%) and the “Clinical cure rate at TOC” value ([6]; Integrated Studies, CE population, 5 to 7 days of therapy) was 387/459 (84.3%). For the same compound, the “Clinical cure rate at TOC” value ([6]; Integrated Studies, MITTE population) was 479/580 (82.6%), the “Treatment Difference (2-sided 95% CI)” value ([6]; CABP Study 1, CE) was 8.4 (1.4, 15.4) and the “Treatment Difference (2-sided 95% CI)” value ([6]; CABP Study 1, MITTE) was 6.2 (−0.2, 12.6). The “Treatment Difference (2-sided 95% CI)” value ([6]; CABP Study 2, CE) was 4.9 (−2.5, 12.5), the “Treatment Difference (2-sided 95% CI)” value ([6]; CABP Study 2, MITTE) was 5.9 (−1.0, 12.7) and the “Treatment Difference (2-sided 95% CI)” value ([6]; Integrated Studies, CE) was 6.7 (1.6, 11.8). The “Treatment Difference (2-sided 95% CI)” value ([6]; Integrated Studies, MITTE) was 6.0 (1.4, 10.7), the “accumulation following multiple IV infusions” value ([7]; 600 mg every 8 or 12 hours for up to 14 days, normal renal function) was “No appreciable accumulation” and the “conversion of prodrug in plasma” value ([7]; appeared to be mediated by a phosphatase enzyme) was “rapidly converted into bioactive ceftaroline”. For the same compound, the “radioactivity recovered in feces” value [8] was ~6%, the “radioactivity recovered in urine” value [8] was “approximately 87%” and the “radioactivity recovered within 48 hours” value [8] was ~90%. For the same compound, the aqueous solubility [9] was 8-30 mg per ml, the “Clinical cure rate by infecting pathogen” value [10] was 13/13 (100%) and the “Clinical cure rate by infecting pathogen” value (Escherichia coli [11]) was 20/21 (95.2%). The “Clinical cure rate by infecting pathogen” value (Klebsiella oxytoca) was 10/12 (83.3%), the “Clinical cure rate by infecting pathogen” value (Morganella morganii) was 11/12 (91.7%) and the “Clinical cure rate by infecting pathogen” value (Streptococcus pyogenes) was 56/56 (100%). For the same compound, the “Clinical cure rate by infecting pathogen” value (Klebsiella pneumoniae [12]) was 17/18 (94.4%), the “Clinical cure rate by infecting pathogen” value (Staphylococcus aureus [13]) was 352/378 (93.1%) and the “Clinical cure rate by infecting pathogen” value (Streptococcus agalactiae) was 21/22 (95.5%). For the same compound, the “Adverse reaction: Constipation” value [14] was 2%, the “Adverse reaction: Diarrhea” value [14] was 5% and the “Adverse reaction: Headache” value [14] was 4%. The “Adverse reaction: Hypokalemia” value [14] was 2%, the “Adverse reaction: Increased transaminases” value [14] was 2% and the “Adverse reaction: Insomnia” value [14] was 3%. The “Adverse reaction: Nausea” value [14] was 4%, the “Adverse reaction: Phlebitis” value [14] was 2% and the “Adverse reaction: Pruritus” value [14] was 2%. The “Adverse reaction: Rash” value [14] was 3%, the “Adverse reaction: Vomiting” value [14] was 2% and the Serious adverse events [14] was 8%. The “discontinuation due to hypersensitivity (most common adverse event leading to discontinuation)” value [14] was 0.3%, the “treatment discontinuations due to adverse events” value [14] was 4% and the “inhibition of major cytochrome P450 isoenzymes” value [15] was “neither ceftaroline fosamil nor ceftaroline inhibits”. The “induction of CYP isoenzymes” value [16] was “not inducers”, the “Clinical cure rate by infecting pathogen” value [17] was 212/228 (93.0%) and the “Clinical cure rate by infecting pathogen” value [18] was 142/152 (93.4%). For the same compound, the “Clinical cure rate by infecting pathogen” value (Haemophilus influenzae) was 15/18 (83.3%), the “Clinical cure rate by infecting pathogen” value (Escherichia coli [19]) was 10/12 (83.3%) and the “Clinical cure rate by infecting pathogen” value (Streptococcus pneumoniae) was 54/63 (85.7%). The “Clinical cure rate by infecting pathogen” value (Klebsiella pneumoniae [20]) was 13/13 (100%) and the “Clinical cure rate by infecting pathogen” value (Staphylococcus aureus [21]) was 18/25 (72.0%).
